Values quoted from earlier work as cited in US12029741B1, “5 beta dihydrotestosterone pharmaceutical formulations and related methods” (priority 2021, dated 2024).

Assays:
[1] = transdermal treatment; called an estimate
Vascular Vessels = conditions: result in words

## C[C@]12CCC(=O)C[C@@H]1CC[C@@H]1[C@@H]2CC[C@]2(C)[C@@H](O)CC[C@@H]12 [5α-DHT, 5α-dihydrotestosterone]
[1]
  terminal half-life: 2.83 h
Vascular Vessels
  efficacy as a vasodilator compared with testosterone: less efficacious than testosterone

## C[C@]12CC[C@H]3[C@@H](CCC4=CC(=O)CC[C@@]43C)[C@@H]1CC[C@@H]2O [testosterone]
[1]
  terminal half-life: 1.29 h

## C[C@]12CCC(=O)C[C@H]1CC[C@@H]1[C@@H]2CC[C@]2(C)[C@@H](O)CC[C@@H]12 [5β-DHT, 17β-hydroxy-5β-androstan-3-one]
Vascular Vessels
  efficacy as a vasodilator compared with testosterone: more efficacious and/or potent than testosterone
